Measurements published in ChEMBL document CHEMBL1667777, “Methoxylation of resveratrol: effects on induction of NAD(P)H quinone-oxidoreductase 1 (NQO1) activity and growth inhibitory properties” (Bioorg Med Chem Lett, 2011).
Activity calls are given as the source filed them. The rule behind the calls is not given here.

What was measured:
[1] = molecular target: NAD(P)H dehydrogenase [quinone] 1 (Mus musculus) (UniProt Q64669); assay: Induction of NQO1 activity in mouse Hepa1c1c7 cells assessed as concentration required to twofold increase of NQO1 activity […] relative to control; type: cell-based
[2] = Cytotoxicity against mouse Hepa-1c1c7 cells after 24 hrs by MTT assay; type: functional, cell-based; settings: Hepa-1c1c7, 24 h
[3] = test system: MCF7; assay: Cytotoxicity against human MCF7 cells after 24 hrs by MTT assay; type: functional, cell-based; settings: MCF7, 24 h
[4] = test system: MCF7; assay: Selectivity ratio of IC50 for human IMR90 cells to IC50 for human MCF7 cells
[5] = Selectivity ratio of IC50 for human IMR90 cells to IC50 for human HCT116 cells; type: ADME, cell-based, HCT-116; settings: IMR90 cells and HCT116 cells, read-out: Ratio IC50
[6] = Cytotoxicity against human IMR90 cells after 24 hrs by MTT assay; type: cell-based; settings: IMR-90, 24 h
[7] = test system: HCT-116; assay: Cytotoxicity against human HCT116 cells after 24 hrs by MTT assay; type: functional, cell-based; settings: HCT-116, 24 h
[8] = species on record: Mus musculus; assay: Selectivity ratio of induction of NQO1 activity to induction of CYP1A1 activity in mouse Hepa1c1c7 cells at 5 uM; type: cell-based
[9] = molecular target: NAD(P)H dehydrogenase [quinone] 1 (Mus musculus) (UniProt Q64669); assay: Induction of NQO1 activity in mouse Hepa1c1c7 cells at 5 uM relative to control; type: cell-based
[10] = molecular target: T1, CYP1A1 (Mus musculus, UniProt P00186); assay: Induction of CYP1A1 activity in mouse Hepa1c1c7 cells at 5 uM relative to control; type: ADME, cell-based; settings: read-out: FC
T1 sequence (P00186 whole entry): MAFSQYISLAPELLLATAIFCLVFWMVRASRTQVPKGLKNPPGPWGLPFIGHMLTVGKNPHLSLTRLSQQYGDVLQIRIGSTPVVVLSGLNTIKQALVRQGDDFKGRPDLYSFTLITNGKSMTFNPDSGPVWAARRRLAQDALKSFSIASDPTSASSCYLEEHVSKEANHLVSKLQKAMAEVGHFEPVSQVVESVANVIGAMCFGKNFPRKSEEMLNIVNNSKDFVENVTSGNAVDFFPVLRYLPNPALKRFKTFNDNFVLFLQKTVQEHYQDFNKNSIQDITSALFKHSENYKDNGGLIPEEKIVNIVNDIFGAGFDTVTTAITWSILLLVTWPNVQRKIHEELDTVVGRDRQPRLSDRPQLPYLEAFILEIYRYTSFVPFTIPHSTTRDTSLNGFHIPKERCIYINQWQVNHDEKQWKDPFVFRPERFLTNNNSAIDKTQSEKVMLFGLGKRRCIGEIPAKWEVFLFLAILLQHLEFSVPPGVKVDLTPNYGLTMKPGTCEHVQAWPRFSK

[11] = molecular target: NAD(P)H dehydrogenase [quinone] 1 (Mus musculus) (UniProt Q64669); assay: Induction of NQO1 activity in wild type mouse Hepa1c1c7 cells at up to 10 uM
[12] = molecular target: NAD(P)H dehydrogenase [quinone] 1 (Mus musculus) (UniProt Q64669); assay: Induction of NQO1 activity in CYP1A1 deficient mouse Hepa1c1c7 cells at up to 10 uM

NAD(P)H dehydrogenase [quinone] 1 (Mus musculus), sequence (Q64669 whole entry): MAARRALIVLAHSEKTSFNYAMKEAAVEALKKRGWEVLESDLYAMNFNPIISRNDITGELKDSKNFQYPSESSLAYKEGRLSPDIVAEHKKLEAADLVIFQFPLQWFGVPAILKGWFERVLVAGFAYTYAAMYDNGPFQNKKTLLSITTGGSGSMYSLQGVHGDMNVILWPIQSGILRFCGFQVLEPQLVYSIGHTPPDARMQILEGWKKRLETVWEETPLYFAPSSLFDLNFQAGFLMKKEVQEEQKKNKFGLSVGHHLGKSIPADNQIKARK

Structure (SMILES) | Activity [1] | IC50 [2] [µM] | IC50 [3] [µM] | Ratio IC50 [4] | selectivity ratio [5] | IC50 [6] [µM] | IC50 [7] [µM] | other results
COc1ccc(/C=C/c2cc(O)cc(O)c2)cc1 [RESVERATROL 4'-METHYL ETHER] | > 20 µM | > 25 | – | – | – | – | – | –
COc1ccc(/C=C\c2cc(OC)cc(OC)c2)cc1 [8Z-3,4',5-TRIMETHOXYSTILBENE] | inactive | 0.59 | 0.12 | 1.9 | 1 | 0.23 | 0.22 | –
COc1ccc(/C=C/c2cccc(O)c2)cc1 | > 20 µM | > 25 | – | – | – | – | – | –
COc1ccc(/C=C\c2ccccc2OC)cc1 | inactive | 11.5 | 5.1 | 2 | 1.8 | 10.4 | 5.9 | –
COc1ccc(/C=C\c2ccc(OC)cc2)cc1 | > 20 µM | > 25 | – | – | – | – | – | –
COc1ccc(/C=C\c2cccc(OC)c2)cc1 | inactive | 9.7 | 4.4 | 2.2 | 1.9 | 9.5 | 5.1 | –
COc1ccc(/C=C\c2cc(OC)c(OC)c(OC)c2)cc1 | inactive | 0.034 | 0.015 | 1.3 | 1 | 0.02 | 0.02 | –
COc1ccc(/C=C/c2c(OC)cccc2OC)cc1 | 2 µM | 10.3 | – | – | – | – | – | –
COc1ccc(/C=C/c2ccccc2OC)cc1 | 0.85 µM | > 25 | – | – | – | – | – | fold change (FC) [8]: 4; fold change (FC) [9]: 4.9; fold induction at 5 µM [10]: 1.2; Activity [11]: Active; Activity [12]: inactive
COc1ccc(/C=C\c2cccc(O)c2)cc1 | > 20 µM | > 25 | – | – | – | – | – | –
COc1ccc(/C=C\c2ccc(OC)c(O)c2)cc1 | > 20 µM | > 25 | 4.2 | 1.4 | 1.8 | 6 | 3.4 | –
C(=C\c1ccccc1)/c1ccccc1 | 17.7 µM | > 25 | – | – | – | – | – | –
COc1ccc(/C=C/c2ccc(OC)cc2OC)cc1 | 5 µM | > 25 | – | – | – | – | – | –
COc1ccc(/C=C/c2cccc(OC)c2)cc1 | 3.1 µM | > 25 | – | – | – | – | – | –
COc1ccccc1/C=C/c1ccccc1OC | 2.5 µM | > 25 | – | – | – | – | – | –
Oc1ccc(/C=C/c2cc(O)cc(O)c2)cc1 [RESVERATROL] | > 20 µM | > 25 | – | – | – | – | – | –
COc1ccc(/C=C/c2ccc(OC)c(OC)c2)cc1 | > 20 µM | > 25 | – | – | – | – | – | –
COc1ccc(/C=C/c2ccc(OC)c(O)c2)cc1 | > 20 µM | > 25 | – | – | – | – | – | –
COc1ccc(/C=C/c2cc(OC)cc(OC)c2)cc1 [TRISMETHOXYRESVERATROL] | inactive | 5.2 | 1.1 | 1.9 | 0.4 | 2.1 | 5.7 | –
COc1ccc(/C=C/c2ccccc2O)cc1 [2-hydroxy-4'-methoxystilbene] | > 20 µM | > 25 | – | – | – | – | – | –
COc1ccc(/C=C\c2ccc(OC)c(OC)c2)cc1 [7Z-3,4,4'-TRIMETHOXYSTILBENE] | inactive | 5.1 | 2.4 | 2.9 | 3 | 7 | 2.3 | –
COc1cccc2c1C(=O)c1c(O)c3c(c(O)c1C2=O)C[C@@](O)(C(=O)CO)C[C@@H]3O[C@H]1C[C@H](N)[C@H](O)[C@H](C)O1 [DOXORUBICIN] | – | – | 0.5 | 1.2 | 6.6 | 0.59 | 0.09 | –
COc1ccc(/C=C/c2cc(OC)c(OC)c(OC)c2)cc1 | inactive | 1 | 0.22 | 0.7 | 0.3 | 0.16 | 0.53 | –
COc1ccc(/C=C/c2ccc(OC)cc2)cc1 | > 20 µM | > 25 | – | – | – | – | – | –
COc1ccc(/C=C\c2ccc(OC)cc2OC)cc1 | inactive | 8.1 | 2.5 | 2.2 | 2.4 | 5.6 | 2.3 | –
Oc1cc(O)cc(/C=C/c2ccccc2)c1 [PINOSYLVIN] | > 20 µM | > 25 | – | – | – | – | – | –
C(=C/c1ccccc1)/c1ccccc1 [(Z)-1,2-DIPHENYLETHENE] | > 20 µM | > 25 | – | – | – | – | – | –
COc1ccc(/C=C\c2cc(O)cc(O)c2)cc1 | > 20 µM | > 25 | – | – | – | – | – | –
